# Values quoted from earlier work as cited in paper PMC12150326 (The Journal of Organic Chemistry, 2025).
# “And” between values parts separate entries of the source, which are not always exact repeats. Equal entries are not always repeated. Where two headings read alike, the source gives them in different places.
# Experiments:
# Parameters in all cases: method as in NCI-60 database
# [1] = test system: MDA-MB-435; details: MDA-MB-435 ref NCI-60 database, cited from earlier work
# [2] = test system: KM12; details: cited from earlier work
# [3] = test system: PC-3; details: PC-3 ref NCI-60 database, cited from earlier work
# [4] = test system: A549/ATCC; details: A549/ATCC ref NCI-60 database, cited from earlier work
# [5] = test system: LOX IMVI; details: LOX IMVI ref NCI-60 database, cited from earlier work
# [6] = test system: LXFL 529; details: LXFL 529 ref NCI-60 database, cited from earlier work
# [7] = test system: CCRF-CEM; details: CCRF-CEM ref NCI-60 database, cited from earlier work
# [8] = test system: NCI-H226; details: NCI-H226 ref NCI-60 database, cited from earlier work
# [9] = test system: MCF7; details: MCF7 ref NCI-60 database, cited from earlier work
# [10] = KM12 ref NCI-60 database, listed as 757/9
smiles,measurement,setting,value
"COc1cc2c(c(OC)c1OC)-c1ccc(OC)c(=O)cc1[C@@H](NC(C)=O)CC2 [Colchicine, (−)-Colchicine]",GI50,[1],< 10 nM
same,Log10GI50,[1],< -8 Molar
same,Log10LC50,[1]; listed as 757/9,< -8.00 Molar
same,Log10TGI,[1]; listed as 757/9,< -8.00 Molar
same,Log10GI50,[1]; listed as 757/21,< -8.00 Molar
same,Log10LC50,[1]; listed as 757/21,> -4.00 Molar
same,Log10TGI,[1]; listed as 757/21,-7.50 Molar
same,GI50,[2]; KM12 (printed KM29) ref NCI-60 database,40 nM
same,Log10GI50,[2]; KM12 ref NCI-60 database,-7.35 Molar
same,Log10GI50,"[2]; KM12 ref NCI-60 database, listed as 757/1",-7.65 Molar
same,Log10GI50,[2]; [10],-7.67 Molar
same,Log10LC50,[2]; [10],-7.04 Molar
same,Log10TGI,[2]; [10],-7.95 Molar
same,Log10LC50,"[2]; KM12 ref NCI-60 database, listed as 757/21",> -4.00 Molar
same,GI50,[3],24 nM
same,Log10GI50,[3],-7.62 Molar
same,Log10LC50,[3],> -4.00 Molar
same,Log10GI50,[3]; listed as 757/9,-7.65 Molar
same,Log10TGI,[3]; listed as 757/9,-6.37 Molar
same,Log10GI50,[3]; listed as 757/21,-7.62 Molar
same,Log10TGI,[3]; listed as 757/21,> -4.00 Molar
same,GI50,[4],260 nM
same,Log10GI50,[4],-6.58 Molar
same,Log10LC50,[4],> -4.00 Molar
same,Log10TGI,[4],> -4.00 Molar
same,Log10GI50,[4]; listed as 757/9,-6.57 Molar
same,GI50,[5],19 nM
same,Log10GI50,[5],-7.71 Molar
same,Log10GI50,[5]; listed as 757/1,-7.11 Molar
same,Log10LC50,[6],> -4.00 Molar
same,Log10TGI,[6],> -4.00 Molar
same,Log10GI50,[6]; listed as 757/21,< -8.00 Molar and -7.80 Molar
same,GI50,[7],20 nM
same,Log10GI50,[7],-7.82 Molar
same,Log10GI50,[7]; listed as 757/1,-7.39 Molar
same,Log10LC50,[7]; listed as 757/9,< -8.00 Molar
same,Log10TGI,[7]; listed as 757/9,< -8.00 Molar
same,Log10GI50,[7]; listed as 757/21,< -8.00 Molar and -7.93 Molar and -7.82 Molar
same,Log10LC50,[7]; listed as 757/21,> -4.00 Molar
same,Log10TGI,[7]; listed as 757/21,> -4.00 Molar
same,GI50,[8],30 nM
same,Log10GI50,[8],-7.56 Molar
same,Log10LC50,[8],> -4.00 Molar
same,Log10TGI,[8]; listed as 757/1,> -4.00 Molar
same,Log10GI50,[8]; listed as 757/9,-7.18 Molar
same,Log10TGI,[8]; listed as 757/9,-7.35 Molar
same,GI50,[9],11 nM
same,Log10GI50,[9],-7.94 Molar
same,Log10LC50,[9],> -4.00 Molar
same,Log10GI50,[9]; listed as 757/9,< -8.00 Molar
same,Log10TGI,[9]; listed as 757/9,-7.92 Molar
same,Log10GI50,[9]; listed as 757/21,-7.89 Molar
same,Log10TGI,[9]; listed as 757/21,> -4.00 Molar
